Assay results as given in US9926297B2, “Bicyclic AZA compounds as muscarinic M1 receptor and/or M4 receptor agonists” (Heptares Therapeutics Limited, priority 2014, dated 2018).

What was measured:
[1] = biological target: T1, human muscarinic M1 receptor (Homo sapiens, UniProt P11229); test: Alphascreen Surefire phospho-ERK1/2 functional assay, M1; assay type: cell-based; conditions: for EC50: phospho-ERK1/2, * = variable results, read-out: pEC50 M1 (converted); for Emax: CHO, read-out: % Emax cf. ACh, M1, CHO cells stably expressing human M1
T1 sequence (P11229 1-460): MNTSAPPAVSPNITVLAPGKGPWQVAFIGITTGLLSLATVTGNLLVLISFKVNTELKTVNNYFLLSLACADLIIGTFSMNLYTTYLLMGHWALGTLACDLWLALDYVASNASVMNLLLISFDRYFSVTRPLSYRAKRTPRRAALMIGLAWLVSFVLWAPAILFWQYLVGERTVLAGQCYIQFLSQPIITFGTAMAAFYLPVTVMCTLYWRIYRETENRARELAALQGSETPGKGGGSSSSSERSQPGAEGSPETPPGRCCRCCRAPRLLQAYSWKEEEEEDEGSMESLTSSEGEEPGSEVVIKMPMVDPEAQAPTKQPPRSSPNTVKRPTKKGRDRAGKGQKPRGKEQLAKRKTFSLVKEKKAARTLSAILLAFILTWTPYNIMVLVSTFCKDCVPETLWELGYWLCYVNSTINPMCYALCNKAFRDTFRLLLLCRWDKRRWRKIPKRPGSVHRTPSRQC

[2] = biological target: T2, human muscarinic M4 receptor (Homo sapiens, UniProt P08173); test: Alphascreen Surefire phospho-ERK1/2 functional assay, M4; assay type: cell-based; conditions: for EC50: phospho-ERK1/2, * = variable results, read-out: pEC50 M4 (converted); for Emax: CHO, read-out: % Emax cf. ACh, M4, CHO cells stably expressing human M4
T2 construct: expressed in transfected cells
T2 sequence (P08173 1-479): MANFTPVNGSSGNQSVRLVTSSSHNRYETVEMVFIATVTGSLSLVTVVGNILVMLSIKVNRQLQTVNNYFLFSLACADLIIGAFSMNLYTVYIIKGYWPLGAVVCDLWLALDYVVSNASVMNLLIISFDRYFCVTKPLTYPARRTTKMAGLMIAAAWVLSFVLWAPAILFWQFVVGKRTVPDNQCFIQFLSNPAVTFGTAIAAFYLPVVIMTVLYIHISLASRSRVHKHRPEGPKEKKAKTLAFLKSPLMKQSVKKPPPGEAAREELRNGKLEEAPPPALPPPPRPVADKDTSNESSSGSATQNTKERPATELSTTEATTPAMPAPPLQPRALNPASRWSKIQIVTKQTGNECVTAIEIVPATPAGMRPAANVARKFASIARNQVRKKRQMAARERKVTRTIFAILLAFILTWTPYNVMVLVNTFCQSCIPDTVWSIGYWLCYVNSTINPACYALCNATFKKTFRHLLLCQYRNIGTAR

[3] = biological target: T3, human muscarinic M2 receptor (Homo sapiens, UniProt P08172); test: Alphascreen Surefire phospho-ERK1/2 functional assay, M2; conditions: for Emax: CHO, read-out: % Emax cf. ACh, M2, CHO cells stably expressing human M2, relative to ACh
T3 sequence (P08172 1-466): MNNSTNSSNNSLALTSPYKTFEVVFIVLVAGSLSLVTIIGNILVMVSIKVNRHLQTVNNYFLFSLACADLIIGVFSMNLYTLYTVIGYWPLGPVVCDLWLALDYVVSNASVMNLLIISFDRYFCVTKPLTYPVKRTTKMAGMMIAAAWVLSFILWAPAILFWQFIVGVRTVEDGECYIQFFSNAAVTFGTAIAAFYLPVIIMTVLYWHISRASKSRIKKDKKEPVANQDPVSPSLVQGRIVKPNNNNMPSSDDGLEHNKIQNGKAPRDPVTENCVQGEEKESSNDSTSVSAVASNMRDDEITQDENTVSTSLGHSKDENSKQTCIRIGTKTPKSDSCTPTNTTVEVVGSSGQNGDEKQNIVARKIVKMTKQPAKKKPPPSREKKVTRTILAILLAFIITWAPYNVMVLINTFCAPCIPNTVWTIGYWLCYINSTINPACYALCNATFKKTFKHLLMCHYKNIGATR

[4] = biological target: human muscarinic M3 receptor (Homo sapiens, UniProt P20309); test: Alphascreen Surefire phospho-ERK1/2 functional assay, M3; conditions: for Emax: CHO, read-out: % Emax cf. ACh, M3, CHO cells stably expressing human M3, relative to ACh; for EC50: pEC50 M3, CHO cells stably expressing human M3, phospho-ERK1/2, * = variable results
[5] = CHO cells stably expressing human M1
[6] = CHO cells stably expressing human M4

Sequence of human muscarinic M3 receptor (P20309 whole entry): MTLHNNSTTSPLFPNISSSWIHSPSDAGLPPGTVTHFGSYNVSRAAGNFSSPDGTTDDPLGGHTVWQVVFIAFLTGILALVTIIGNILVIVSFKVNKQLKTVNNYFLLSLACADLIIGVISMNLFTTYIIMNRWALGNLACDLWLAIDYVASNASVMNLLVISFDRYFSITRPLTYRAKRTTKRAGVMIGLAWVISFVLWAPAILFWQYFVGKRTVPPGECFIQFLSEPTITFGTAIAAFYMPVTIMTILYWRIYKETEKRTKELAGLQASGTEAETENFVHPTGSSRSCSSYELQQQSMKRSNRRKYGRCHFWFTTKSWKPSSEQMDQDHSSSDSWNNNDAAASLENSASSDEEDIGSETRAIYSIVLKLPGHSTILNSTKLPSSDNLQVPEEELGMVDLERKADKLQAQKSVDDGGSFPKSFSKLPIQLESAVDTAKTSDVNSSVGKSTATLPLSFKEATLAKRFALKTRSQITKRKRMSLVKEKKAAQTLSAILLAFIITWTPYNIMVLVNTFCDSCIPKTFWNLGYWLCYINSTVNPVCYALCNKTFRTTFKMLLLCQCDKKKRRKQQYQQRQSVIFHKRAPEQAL

| Structure (SMILES) | EC50 [1, 5] [nM] | Emax ([1]; relative to ACh) [%] | EC50 [2, 6] [nM] | Emax ([2]; relative to ACh) [%] | EC50 [3] [nM] | Emax [3] [%] | Emax [4] [%] | EC50 [4] [nM] | % Emax cf. ACh, M1 ([1]; CHO cells stably expressing human M1, relative to ACh) [%] | % Emax cf. ACh, M4 ([2]; CHO cells stably expressing human M4, relative to ACh) [%] |
| --- | --- | --- | --- | --- | --- | --- | --- | --- | --- | --- |
| CCOC(=O)N1CCC2(CC(N3CCC([C@@H]4C[C@H](F)CN4C(=O)CC)CC3)C2)C1 (single isomer, unassigned) [2-59 Isomer 2] | 3160 | 28 | 251 | 67 | > 20000 | 11 | 7 | > 20000 |  |  |
| CCOC(=O)N1CCC2(CC(N3CCC([C@@H]4CCCN4C(=O)NOC)CC3)C2)C1 (single isomer, unassigned) [2-33 Isomer 1] | 398 |  | 7.94 |  | > 20000 | 8 | 3 | > 20000 | 86 | 109 |
| CCOC(=O)N1CCC2(CC(N3CCC([C@@H]4CCCN4C(=O)CCc4ccccn4)CC3)C2)C1 (single isomer, unassigned) [2-62 Isomer 2] | > 20000 | 20 | 15.8 | 65 | > 20000 | 6 | 8 | > 20000 |  |  |
| CCOC(=O)N1CCC2(CC(N3CCC([C@H]4CCCN4C(=O)OC)CC3)C2)C1 (single isomer, unassigned) [2-13 Isomer 2] | 10000 | 69 | 158 | 57 | > 20000 | 7 | 24 | > 20000 |  |  |
| CCOC(=O)N1CCC2(CC(N3CCC([C@@H]4CCCN4CCF)CC3)C2)C1 (single isomer, unassigned) [2-68 Isomer 2] | 1000 | 32 | 63.1 | 73 | > 20000 | 4 | 6 | > 20000 |  |  |
| CCOC(=O)N1CCC2(CC(N3CCC([C@@H]4CCCN4C(=O)C4CCC4)CC3)C2)C1 (single isomer, unassigned) [2-9 Isomer 2] | 1000 | 43 | 10 | 104 | > 20000 | 4 | 6 | > 20000 |  |  |
| COC(=O)N1CCC2(CC(N3CCC([C@@H]4CCCN4C(=O)NCC(F)(F)F)CC3)C2)C1 (single isomer, unassigned) [2-40 Isomer 2] | 794 | 78 | 31.6 | 90 | > 20000 | 2 | 1 | > 20000 |  |  |
| CCOC(=O)N1CCC2(CC(N3CCC([C@@H]4CCCN4C(=O)N(C)C4COC4)CC3)C2)C1 (single isomer, unassigned) [2-57 Isomer 2] | > 20000 | 16 | 31.6 | 117 | > 20000 | 25 | 4 | > 20000 |  |  |
| CCOC(=O)N1CCC2(CC(N3CCC(C4CCCN4C(C)=O)CC3)C2)C1 (single isomer, unassigned) [2-3 Isomer 2, ethyl 2-[4-(1-acetylpyrrolidin-2-yl)piperidin-1-yl]-6-azaspiro[3.4]octane-6-carboxylate] | 10000 | 32 | 50.1 | 89 | > 20000 | 14 | 4 | > 20000 |  |  |
| CCOC(=O)N1CCC2(CC(N3CCC(c4nc(Cl)c(Cl)[nH]4)CC3)C2)C1 (single isomer, unassigned) [1-5 Isomer 2, ethyl 2-[4-(4,5-dichloro-1H-imidazol-2-yl)piperidin-1-yl]-6-azaspiro[3.4]octane-6-carboxylate] | 126 | 94 | 20 | 81 | > 20000 | 19 | 2 | > 20000 |  |  |

Results, then the compound that gave them:

| EC50 [1, 5] [nM] | Emax ([1]; relative to ACh) [%] | EC50 [2, 6] [nM] | Emax ([2]; relative to ACh) [%] | EC50 [3] [nM] | Emax [3] [%] | Emax [4] [%] | EC50 [4] [nM] | % Emax cf. ACh, M1 ([1]; CHO cells stably expressing human M1, relative to ACh) [%] | % Emax cf. ACh, M4 ([2]; CHO cells stably expressing human M4, relative to ACh) [%] | Structure (SMILES) |
| --- | --- | --- | --- | --- | --- | --- | --- | --- | --- | --- |
| 126 | 66 | 50.1 | 77 | > 20000 | 75 | 9 | > 20000 |  |  | CCOC(=O)N1CCC2(CC(N3CCC(C4CCCN(C(C)C)C4=O)CC3)C2)C1 (single isomer, unassigned) [4-6 Isomer 2, ethyl 2-[2-oxo-1-(propan-2-yl)-3,4′-bipiperidin-1′-yl]-6-azaspiro[3.4]octane-6-carboxylate] |
| 501 | 42 | 63.1 | 74 | > 20000 | 3 | 8 | > 20000 |  |  | CCOC(=O)N1CCC2(CC(N3CCC(N4CCCNC4=O)CC3)C2)C1 (single isomer, unassigned) [4-8 Isomer 1, ethyl 2-[4-(2-oxotetrahydropyrimidin-1(2H)-yl)piperidin-1-yl]-6-azaspiro[3.4]octane-6-carboxylate] |
| 501 | 52 | 15.8 | 60 | > 20000 | 9 | 9 | > 20000 |  |  | CCOC(=O)N1CCC2(CC(N3CCC(C4CCCN(CC)C4=O)CC3)C2)C1 (single isomer, unassigned) [4-5 Isomer 2, ethyl 2-(1-ethyl-2-oxo-[3,4′-bipiperidin]-1′-yl)-6-azaspiro[3.4]octane-6-carboxylate] |
| 316 | 25 | 39.8 | 44 | > 20000 | 80 | 5 | > 20000 |  |  | CCOC(=O)N1CCC2(CC(N3CCC(N4CC(F)(F)C[C@@H]4C(=O)NC)CC3)C2)C1 (single isomer, unassigned) [2-88 Isomer 2] |
| 501 | 31 | 31.6 | 62 | > 20000 | 1 | 0 | > 20000 |  |  | CCOC(=O)N1CCC2(CC(N3CCC(N4CCCC4=O)CC3)C2)C1 (single isomer, unassigned) [2-111 Isomer 2, ethyl 2-[4-(2-oxopyrrolidin-1-yl)piperidin-1-yl]-6-azaspiro[3.4]octane-6-carboxylate] |
| 794 | 30 | 79.4 | 52 | > 20000 | 13 | 10 | > 20000 |  |  | CCOC(=O)N1CCC2(CC(N3CCC([C@@H]4CCCN4CC(=O)OC)CC3)C2)C1 (single isomer, unassigned) [2-72 Isomer 2] |
| 398 | 46 | 15.8 | 100 | > 20000 | 54 | 3 | > 20000 |  |  | CCOC(=O)N1CCC2(CC(N3CCC(N4CC(F)(F)C[C@@H]4C(=O)OC)CC3)C2)C1 (single isomer, unassigned) [2-87 Isomer 2] |
| 158 | 60 | 7.94 | 107 | > 20000 | 1 | 1 | > 20000 |  |  | CCOC(=O)N1CCC2(CC(N3CCC([C@@H]4CCCN4C(=O)CCNC(=O)OCc4ccccc4)CC3)C2)C1 (single isomer, unassigned) [2-65 Isomer 2] |
